This assay deals with L1210 leukemia ip in BDF1 mice, survival T/C. The experiment in a line: NCI In Vivo Anticancer Drug Screen. Data for tumor model L1210 Leukemia (intraperitoneal) in B6D2F1 (BDF1) mice. Particulars: endpoint: mean survival time, higher = longer survival. The method, boiled down: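 Tumor was transplanted into mice, which were then dosed with test compound or vehicle alone. Survival was recorded for each group, and the treated figure was expressed relative to the control figure.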

Where [1] appears, read: dose: 75.0 mg/kg/injection, schedule: Q01DX001 (ip), vehicle: other.
Setting [2] is: dose: 150.0 mg/kg/injection, schedule: Q01DX001 (ip), vehicle: other.
The mark [3] stands for this setting: dose: 300.0 mg/kg/injection, schedule: Q01DX001 (ip), vehicle: other.
[4] abbreviates: dose: 100.0 mg/kg/injection, schedule: Q04DX003 (ip), vehicle: saline with Tween-80.
Where [5] appears, read: dose: 200.0 mg/kg/injection, schedule: Q04DX003 (ip), vehicle: saline with Tween-80.
[6] abbreviates: dose: 100.0 mg/kg/injection, schedule: Q01DX009 (ip), vehicle: Klucel (hydroxypropylcellulose) (HPC).
Setting [7] is: dose: 200.0 mg/kg/injection, schedule: Q01DX009 (ip), vehicle: Klucel (hydroxypropylcellulose) (HPC).
[8] abbreviates: dose: 400.0 mg/kg/injection, schedule: Q01DX009 (ip), vehicle: Klucel (hydroxypropylcellulose) (HPC).
Where [9] appears, read: dose: 50.0 mg/kg/injection, schedule: Q01DX009 (ip), vehicle: saline with Tween-80.
The mark [10] stands for this setting: dose: 100.0 mg/kg/injection, schedule: Q01DX009 (ip), vehicle: saline with Tween-80.
Where [11] appears, read: dose: 200.0 mg/kg/injection, schedule: Q01DX009 (ip), vehicle: saline with Tween-80.
[12] abbreviates: dose: 100.0 mg/kg/injection, schedule: Q04DX003 (ip), vehicle: Klucel (hydroxypropylcellulose) (HPC).
Setting [13] is: dose: 200.0 mg/kg/injection, schedule: Q04DX003 (ip), vehicle: Klucel (hydroxypropylcellulose) (HPC).
[14] abbreviates: dose: 400.0 mg/kg/injection, schedule: Q04DX003 (ip), vehicle: Klucel (hydroxypropylcellulose) (HPC).
Where [15] appears, read: dose: 100.0 mg/kg/injection, schedule: Q04DX002 (ip), vehicle: saline with Tween-80.

“And” between values parts separate entries of the source, which are not always exact repeats. Identical values can stand only once. Toxic doses and inconclusive results are not listed.

`O=C(O)C12CCC(CCC1O)C2` (stereo unspecified): the T/C is 102 % of control under setting [1], 100 % of control under setting [2] and 100 % of control under setting [3].
With `CCN(CCNc1cc(C)nc(/N=C(\N)Nc2ccc(Cl)c(Cl)c2)n1)CC(C)(C)O`, the T/C under setting [1] was 93 % of control, the T/C under setting [2] is 95 % of control and the T/C under setting [3] was 104 % of control.
In the case of `S=c1nc(-c2ccccc2)[nH][nH]1`, the T/C is 97 % of control under setting [4]; 98 % of control under setting [5]; 88 % of control (dose: 400.0 mg/kg/injection, schedule: Q04DX003 (ip), vehicle: saline with Tween-80).
Turning to `Cc1cc(OCCOC(=O)Nc2ccccc2F)cc(C)c1Cl`, the T/C by setting is: under setting [6], 93 % of control; under setting [7], 101 % of control; under setting [8], 103 % of control.
Regarding `O=C1CCSC(=S)N1c1ccc(Cl)c(Cl)c1`, the T/C is 101 % of control (dose: 25.0 mg/kg/injection, schedule: Q04DX003 (ip), vehicle: saline with Tween-80); 101 % of control (dose: 50.0 mg/kg/injection, schedule: Q04DX003 (ip), vehicle: saline with Tween-80); 104 % of control under setting [4].
As for `O=C(O)C1C2C=CC(C2)C1C(=O)Nc1ccccn1` (stereo unspecified), the T/C is 104 % of control under setting [9], 101 % of control under setting [10] and 96 % of control under setting [11].
`O=S(=O)(Cc1ccc(Cl)cc1)c1ccccc1-n1cccc1`: the T/C is 90 % of control under setting [12], 92 % of control under setting [13] and 100 % of control under setting [14].
Take `CCCCC(CC)C1NC(=O)N(SC(Cl)(Cl)Cl)C1=O` (stereo unspecified): the T/C is 103 % of control (dose: 12.5 mg/kg/injection, schedule: Q01DX009 (ip), vehicle: saline with Tween-80); 92 % of control (dose: 25.0 mg/kg/injection, schedule: Q01DX009 (ip), vehicle: saline with Tween-80); 101 % of control and 106 % of control under setting [9].
As to `CC1S(=O)(=O)CCS1(=O)=O`, the T/C runs as follows: (dose: 75.0 mg/kg/injection, schedule: Q01DX001 (ip), vehicle: saline with Tween-80) 100 % of control; (dose: 150.0 mg/kg/injection, schedule: Q01DX001 (ip), vehicle: saline with Tween-80) 100 % of control; (dose: 300.0 mg/kg/injection, schedule: Q01DX001 (ip), vehicle: saline with Tween-80) 103 % of control.
Consider `CC(C)(C)C1=C(C(C)(C)C)CS(=O)(=O)C1`, for which the T/C by setting is: (dose: 25.0 mg/kg/injection, schedule: Q01DX001 (ip), vehicle: saline with Tween-80) 98 % of control; (dose: 50.0 mg/kg/injection, schedule: Q01DX001 (ip), vehicle: saline with Tween-80) 100 % of control; (dose: 100.0 mg/kg/injection, schedule: Q01DX001 (ip), vehicle: saline with Tween-80) 100 % of control and 107 % of control.
Turning to `COC(=O)c1cc(N2CC2)nc(SC)n1`, the T/C was 96 % of control (dose: 6.0 mg/kg/injection, schedule: Q01DX Z (ip), vehicle: methylcellulose (MC)) and 96 % of control (dose: 12.0 mg/kg/injection, schedule: Q01DX Z (ip), vehicle: methylcellulose (MC)).
In the case of `CCCCCCCCCCCCC(CCC)(OO)C(=O)OC` (stereo unspecified), the T/C is 98 % of control (dose: 25.0 mg/kg/injection, schedule: Q04DX002 (ip), vehicle: saline with Tween-80); 87 % of control (dose: 50.0 mg/kg/injection, schedule: Q04DX002 (ip), vehicle: saline with Tween-80); 98 % of control under setting [15].
Take `COC(=O)c1nc(Cl)nc(S(C)(=O)=O)c1Cl`: the T/C runs as follows: (dose: 12.5 mg/kg/injection, schedule: Q01DX009 (ip), vehicle: Klucel (hydroxypropylcellulose) (HPC)) 109 % of control; (dose: 25.0 mg/kg/injection, schedule: Q01DX009 (ip), vehicle: Klucel (hydroxypropylcellulose) (HPC)) 103 % of control; (dose: 50.0 mg/kg/injection, schedule: Q01DX009 (ip), vehicle: Klucel (hydroxypropylcellulose) (HPC)) 103 % of control and 89 % of control; under setting [6], 92 % of control.
Take `C=[CH][Sn]([c]1ccccc1)([c]1ccccc1)[c]1ccccc1`: the T/C reads like this: (dose: 50.0 mg/kg/injection, schedule: Q01DX009 (ip), vehicle: saline) 92 % of control and 104 % of control and 109 % of control; (dose: 100.0 mg/kg/injection, schedule: Q01DX009 (ip), vehicle: saline) 106 % of control and 114 % of control and 89 % of control; (dose: 200.0 mg/kg/injection, schedule: Q01DX009 (ip), vehicle: saline) 96 % of control and 101 % of control (2×).
As for `O=C(/C=C/c1ccccc1)Sc1ccccc1`, the T/C by setting is: (dose: 100.0 mg/kg/injection, schedule: Q04DX002 (ip), vehicle: Klucel (hydroxypropylcellulose) (HPC)) 88 % of control; (dose: 200.0 mg/kg/injection, schedule: Q04DX002 (ip), vehicle: Klucel (hydroxypropylcellulose) (HPC)) 88 % of control; (dose: 400.0 mg/kg/injection, schedule: Q04DX002 (ip), vehicle: Klucel (hydroxypropylcellulose) (HPC)) 107 % of control.
Consider `CSCCC(NC(=O)c1ccccc1)C(N)=O` (stereo unspecified), for which the T/C runs as follows: under setting [10], 90 % of control; under setting [11], 89 % of control.
For the molecule `N#CC1CNC(=S)N=C1c1ccccc1` (stereo unspecified), the T/C runs as follows: under setting [12], 100 % of control; under setting [13], 95 % of control.
As to `CCCCCCCCCN1CCCC(C)C1` (stereo unspecified), the T/C (dose: 12.5 mg/kg/injection, schedule: Q04DX002 (ip), vehicle: Klucel (hydroxypropylcellulose) (HPC)) was 93 % of control; the T/C (dose: 25.0 mg/kg/injection, schedule: Q04DX002 (ip), vehicle: Klucel (hydroxypropylcellulose) (HPC)) is 97 % of control; the T/C (dose: 50.0 mg/kg/injection, schedule: Q04DX002 (ip), vehicle: Klucel (hydroxypropylcellulose) (HPC)) was 101 % of control.
On to `Nc1nc(N)nc(-c2ccccc2N=NN2CCOCC2)n1`, for which the T/C is, setting by setting: under setting [12], 103 % of control; under setting [13], 101 % of control; under setting [14], 101 % of control.
Consider `COc1ccc(NC(=O)Nc2ccccc2Cl)c(OC)c1`, for which the T/C under setting [15] is 87 % of control and the T/C (dose: 400.0 mg/kg/injection, schedule: Q04DX002 (ip), vehicle: saline with Tween-80) is 87 % of control.
`COc1ccc(CC(=O)OOC(C)(C)C)cc1`: the T/C by setting is: under setting [4], 100 % of control; under setting [5], 92 % of control.
For the molecule `Nc1cncc(Br)c1NCCc1ccccc1`, the T/C is, setting by setting: (dose: 100.0 mg/kg/injection, schedule: Q01DX001 (ip), vehicle: carboxymethylcellulose (CMC)) 103 % of control; (dose: 200.0 mg/kg/injection, schedule: Q01DX001 (ip), vehicle: carboxymethylcellulose (CMC)) 97 % of control; (dose: 400.0 mg/kg/injection, schedule: Q01DX001 (ip), vehicle: carboxymethylcellulose (CMC)) 101 % of control.
Consider `CS(=O)c1ccc(/C=C2/C=Cc3ccccc32)cc1` (stereo unspecified), for which the T/C was 91 % of control under setting [6], 103 % of control under setting [7] and 101 % of control under setting [8].
Take `Cn1cnc2nn[nH]c(=O)c21`: the T/C runs as follows: under setting [6], 94 % of control; (dose: 100.0 mg/kg/injection, schedule: Q04DX003 (ip), vehicle: saline) 92 % of control; under setting [7], 96 % of control; (dose: 200.0 mg/kg/injection, schedule: Q04DX003 (ip), vehicle: saline) 92 % of control; under setting [8], 90 % of control; (dose: 400.0 mg/kg/injection, schedule: Q04DX003 (ip), vehicle: saline) 95 % of control.

The record behind these values is PubChem BioAssay AID248 (DTP/NCI, 2004).
